{"source": "patent US20250195457A1", "about": "“PHARMACEUTICAL COMPOSITION FOR TREATMENT OF PARKINSON'S DISEASE” (Eisai R&D Management Co., Ltd., priority 2022, published 2025)", "tested_on": "Parkinson's disease model cynomolgus monkeys (MPTP)", "assay": "Test Example 1: NDSs after administration of Compound (I) alone in MPTP Parkinson's disease model monkeys", "assay_type": "in vivo", "parameters": "key to Subgroup 2: Specific motor functions score: specific motor functions subscore, range 0-21", "experimental": "The therapeutic effect of Compound (I) on Parkinson's disease was examined using Parkinson's disease model animals which are produced by administering MPTP (1-methyl-4-phenyl-1,2,3,6-tetrahydropyridine).\nMPTP was administered to male cynomolgus monkeys at the age of 4 to 5 to make Parkinson's disease model cynomolgus monkeys. MPTP was additionally administered to animals with neurologic deficit scores (Neurological deficit scores: NDSs, Schneider et al., “Development of levodopa-induced dyskinesias in parkinsonian monkeys may depend upon rate of symptom onset and/or duration of symptoms”, Brain Res., 2003, 990:38-44.) of less than 25.\nEight Parkinson's disease model cynomolgus monkeys were randomized into 5 groups of approximately equal mean and variance in terms of Parkinson behavior rating (Tremor score) and body weight. On subsequent cycle 2, cycle 3, cycle 4 and cycle 5, the animals were crossed over to receive the other treatments. A wash out period of one week or more was set between each cycle.\nBy the end of the study, each animal had received all the five treatments. Istradefylline is an adenosine A2A receptor antagonist approved as a drug for improving a wearing off phenomenon in Parkinson's disease being treated with a levodopa-containing preparation in the United States of America and Japan (Patent Literature 4). As a vehicle, an aqueous solution containing 0.43% (w/v) methyl cellulose 400, 10% (v/v) dimethyl sulfoxide (DMSO), and 4.5% (w/v) Cremophor (R) was used.\nBefore the administration, and 1 hr., 4 hrs., and 24 hrs. after the administration of the test substances, the NDSs of the monkeys were evaluated. The evaluation items are as follows. The behavior evaluation was performed in a blinded manner. The NDSs of the groups were compared using Steel's test. The p-values of less than 0.05 were considered to be statistically significant.\nSubgroup 1: generalized behaviors (0-32) • 1.1a Appetite • 0: Normal • 1: Up to 30% food left • 2: Up to 65% food left • 3: Greater than 65% food left • 1.1b Response to offered food • 0: Responds to offered food • 1: Inconsistent response to offered food • 2: Little to no interest in offered food • 1.2 Overall activity • 0: Normal • 1: Mild hypokinesia; decrease in spontaneous movement • 2: Moderate hypokinesia; sparse spontaneous movement • 3: Severe hypokinesia; no spontaneous movement; tends to remain in one place • 1.3 Appearance • 0: Normal • 1: Mild but noticeable decrease in self-maintenance • 2: Moderate decrease in self-maintenance • 3: Severe lack of self-maintenance • 1.4 Posture • 0: Normal • 1: Minor flexing or stooping • 2: Moderate flexing or stooping; head and upper body almost parallel to floor of cage • 3: Severe flexing or stooping; head lowered to feet • 1.5 Balance • 0: Normal • 1: Mild loss on arising or movement • 2: Moderate loss on arising or movement; occasionally falls or supports self to keep from falling • 3: Severe loss of balance; falls • 1.6 Climbing • 0: Climbing observed with no delays in initiation/execution • 1: Mild deficit in ability to climb and support weight • 2: Moderate deficit in ability to climb and support weight; tends to ‘slide down’ • 3: Absence of any climbing behavior • 1.7 Tremor • 0: Absent • 1: Slight and intermittent • 2: Slight and persistent or moderate and intermittent • 3: Moderate/severe and persistent • 1.8 Freezing during movement • 0: Absent • 1: Occasional freezing for brief periods • 2: Occasional freezing for prolonged periods or frequent freezing for brief periods • 3: Prolonged and frequent freezing • 1.9 Facial expression • 0: Normal • 1: Mild hypomimia • 2: Moderate hypomimia • 3: Severe, masked fixed faces • 1.10 Defense reaction • 0: Normal • 1: Mild, noticeable reduction in reaction or slowed reaction, but can be provoked to react • 2: Moderate reduction in reaction; can produce facial display but not body reaction • 3: Little to no response\nSubgroup 2: Specific Motor Functions (0-21)", "key": {"[1]": {"details": "Compound (I) high dose 50 mg/kg (G4), 1 hr. after administration"}, "[2]": {"details": "Compound (I) high dose 50 mg/kg (G4), 4 hrs. after administration"}, "[3]": {"details": "Compound (I) high dose 50 mg/kg (G4), 24 hrs. after administration"}, "[4]": {"details": "Compound (I) high dose 50 mg/kg (G4), Pre (before administration)"}, "[5]": {"details": "Compound (I) low dose 5 mg/kg (G2), 1 hr. after administration"}, "[6]": {"details": "Compound (I) low dose 5 mg/kg (G2), 4 hrs. after administration"}, "[7]": {"details": "Compound (I) low dose 5 mg/kg (G2), 24 hrs. after administration"}, "[8]": {"details": "Compound (I) low dose 5 mg/kg (G2), Pre (before administration)"}, "[9]": {"details": "Compound (I) middle dose 15 mg/kg (G3), 1 hr. after administration"}, "[10]": {"details": "Compound (I) middle dose 15 mg/kg (G3), 4 hrs. after administration"}, "[11]": {"details": "Compound (I) middle dose 15 mg/kg (G3), 24 hrs. after administration"}, "[12]": {"details": "Compound (I) middle dose 15 mg/kg (G3), Pre (before administration)"}}, "data": [{"smiles": "NS(=O)(=O)N[C@H]1c2c(F)cc(F)cc2CC1(F)F", "note": "[Compound (I), N-[(1S)-2,2,5,7-tetrafluoro-2,3-dihydro-1H-inden-1-yl]sulfamide]", "values": [{"measurement": "Subgroup 1: GENERALIZED BEHAVIORS score", "setting": "[1]", "value": "17.1 ± 0.8"}, {"measurement": "Subgroup 2: Specific motor functions score", "setting": "[1]", "value": "12.0 ± 0.5"}, {"measurement": "Total score of NDSs", "setting": "[1]", "value": "29.1 ± 1.3"}, {"measurement": "Tremor score", "setting": "[1]", "value": "1.6 ± 0.2"}, {"measurement": "Subgroup 1: GENERALIZED BEHAVIORS score", "setting": "[2]", "value": "14.8 ± 1.0"}, {"measurement": "Subgroup 2: Specific motor functions score", "setting": "[2]", "value": "9.9 ± 0.5"}, {"measurement": "Total score of NDSs", "setting": "[2]", "value": "24.6 ± 1.3"}, {"measurement": "Tremor score", "setting": "[2]", "value": "1.1 ± 0.1"}, {"measurement": "Subgroup 1: GENERALIZED BEHAVIORS score", "setting": "[3]", "value": "17.3 ± 1.1"}, {"measurement": "Subgroup 2: Specific motor functions score", "setting": "[3]", "value": "12.0 ± 0.6"}, {"measurement": "Total score of NDSs", "setting": "[3]", "value": "29.3 ± 1.6"}, {"measurement": "Tremor score", "setting": "[3]", "value": "1.4 ± 0.2"}, {"measurement": "Subgroup 1: GENERALIZED BEHAVIORS score", "setting": "[4]", "value": "19.0 ± 0.8"}, {"measurement": "Subgroup 2: Specific motor functions score", "setting": "[4]", "value": "13.5 ± 0.4"}, {"measurement": "Total score of NDSs", "setting": "[4]", "value": "32.5 ± 1.1"}, {"measurement": "Tremor score", "setting": "[4]", "value": "2.1 ± 0.1"}, {"measurement": "Subgroup 1: GENERALIZED BEHAVIORS score", "setting": "[5]", "value": "16.1 ± 0.9"}, {"measurement": "Subgroup 2: Specific motor functions score", "setting": "[5]", "value": "11.5 ± 0.6"}, {"measurement": "Total score of NDSs", "setting": "[5]", "value": "27.6 ± 1.5"}, {"measurement": "Tremor score", "setting": "[5]", "value": "1.8 ± 0.2"}, {"measurement": "Subgroup 1: GENERALIZED BEHAVIORS score", "setting": "[6]", "value": "16.0 ± 0.7"}, {"measurement": "Subgroup 2: Specific motor functions score", "setting": "[6]", "value": "12.5 ± 0.3"}, {"measurement": "Total score of NDSs", "setting": "[6]", "value": "28.5 ± 1.0"}, {"measurement": "Tremor score", "setting": "[6]", "value": "1.8 ± 0.2"}, {"measurement": "Subgroup 1: GENERALIZED BEHAVIORS score", "setting": "[7]", "value": "17.1 ± 0.8"}, {"measurement": "Subgroup 2: Specific motor functions score", "setting": "[7]", "value": "11.9 ± 0.4"}, {"measurement": "Total score of NDSs", "setting": "[7]", "value": "29.0 ± 1.0"}, {"measurement": "Tremor score", "setting": "[7]", "value": "2.1 ± 0.1"}, {"measurement": "Subgroup 1: GENERALIZED BEHAVIORS score", "setting": "[8]", "value": "17.4 ± 0.8"}, {"measurement": "Subgroup 2: Specific motor functions score", "setting": "[8]", "value": "13.3 ± 0.5"}, {"measurement": "Total score of NDSs", "setting": "[8]", "value": "30.6 ± 1.1"}, {"measurement": "Tremor score", "setting": "[8]", "value": "2.0 ± 0.0"}, {"measurement": "Subgroup 1: GENERALIZED BEHAVIORS score", "setting": "[9]", "value": "15.5 ± 1.0"}, {"measurement": "Subgroup 2: Specific motor functions score", "setting": "[9]", "value": "12.3 ± 0.5"}, {"measurement": "Total score of NDSs", "setting": "[9]", "value": "27.8 ± 1.5"}, {"measurement": "Tremor score", "setting": "[9]", "value": "1.6 ± 0.2"}, {"measurement": "Subgroup 1: GENERALIZED BEHAVIORS score", "setting": "[10]", "value": "15.0 ± 0.8"}, {"measurement": "Subgroup 2: Specific motor functions score", "setting": "[10]", "value": "11.5 ± 0.4"}, {"measurement": "Total score of NDSs", "setting": "[10]", "value": "26.5 ± 1.0"}, {"measurement": "Tremor score", "setting": "[10]", "value": "1.6 ± 0.2"}, {"measurement": "Subgroup 1: GENERALIZED BEHAVIORS score", "setting": "[11]", "value": "16.8 ± 0.9"}, {"measurement": "Subgroup 2: Specific motor functions score", "setting": "[11]", "value": "12.8 ± 0.3"}, {"measurement": "Total score of NDSs", "setting": "[11]", "value": "29.5 ± 1.1"}, {"measurement": "Tremor score", "setting": "[11]", "value": "1.8 ± 0.2"}, {"measurement": "Subgroup 1: GENERALIZED BEHAVIORS score", "setting": "[12]", "value": "17.3 ± 0.6"}, {"measurement": "Subgroup 2: Specific motor functions score", "setting": "[12]", "value": "12.9 ± 0.4"}, {"measurement": "Total score of NDSs", "setting": "[12]", "value": "30.1 ± 0.9"}, {"measurement": "Tremor score", "setting": "[12]", "value": "2.0 ± 0.0"}]}]}
